Results from ChEMBL document CHEMBL1148317, “A medicinal chemistry perspective on artemisinin and related endoperoxides” (J Med Chem, 2004).

Assays:
Mus musculus [1] = assay: In vivo antimalarial activity to reduce parasitaemia in mice (Mus musculus) infected with Plasmodium berghei by 50% of the control; assay type: functional
Plasmodium falciparum [2] = assay: In vitro antimalarial activity for Plasmodium falciparum; assay type: functional, organism-based
[3] = Half life of compound was determined; assay type: ADME
Plasmodium falciparum [4] = assay: Inhibitory concentration against Plasmodium falciparum
Mus musculus [5] = assay: In vivo antimalarial activity to reduce parasitaemia in mice (Mus musculus) infected with Plasmodium berghei by 50% of the control; range 1 mg/kg to 3 mg/kg; assay type: functional
Plasmodium falciparum [6] = assay: In vitro antimalarial activity for Plasmodium falciparum; range 3 nM to 10 nM; assay type: functional, organism-based
Plasmodium falciparum [7] = assay: Inhibitory concentration against Plasmodium falciparum; remark: listed apart in the source

Compound | ED50 (Mus musculus [1]) [mg/kg] | IC50 (Plasmodium falciparum [2]) [nM] | other results
Fc1ccc(C2=C[C@H]3OC4(CCCC4)OO[C@@]3(c3ccc(F)cc3)C2)cc1 | 2.7 | 4 | 
CO[C@H]1O[C@@H](c2ccc(C(=O)O)cc2)C2CC[C@H]3CCCCC31OO2 (stereo partly specified) | 10 | 30 | 
CO[C@H]1O[C@@]2(c3ccc(F)cc3)CCC[C@H]3CCCC[C@]31OO2 | 10 | 30 | 
C[C@H]1[C@H](OCc2ccc(C(=O)[O-])cc2)O[C@@H]2O[C@]3(C)CCC[C@H]4[C@H](C)CC[C@@H]1[C@@]24OO3.[Na+] |  |  | half-life [3]: 3 h
C1CCCCCC2(CCCCC1)OOCCCOO2 | 20 | 25 | IC50 (Plasmodium falciparum [4]): 3 nM
OC1CCC2(CC1)OOC1(O2)C2CC3CC(C2)CC1C3 (stereo unspecified) |  |  | ED50 (Mus musculus [5]): 3 mg/kg; IC50 (Plasmodium falciparum [6]): 10 nM
CC1(OCc2ccccc2)CCC2C[C@@H]1OO[C@]2(C)CS(=O)(=O)c1ccccc1 (stereo partly specified) | 0.43 | 9.4 | 
Clc1ccc2c(NCCNC3CCC4(CC3)OOC3(O4)C4CC5CC(C4)CC3C5)ccnc2c1 (stereo unspecified) |  | 2.5 | 
C[C@@H]1CC[C@H]2[C@@H](C)C(=O)O[C@@H]3O[C@@]4(C)CC[C@@H]1[C@]32OO4 [ARTEMISININ] |  |  | IC50 (Plasmodium falciparum [7]): 10 nM
